Patent US9409983B2, “Methods and compositions involving PBEF inhibitors for lung inflammation conditions and diseases” (The Board of Trustess of the University of Illinois, priority 2009, dated 2016)

Experiments:
RENCA cells = conditions: cited from earlier work
human PBEF [1] = conditions: as reported in Ye et al. 2005; cited from earlier work
human PBEF [2] = assay: In vitro PBEF silencing with siRNAs; format: cell-based
Text: In vitro human PBEF stealth siRNAs were designed based on the human PBEF cDNA reference sequence (NM_005746.1) using the BLOCK-iTi RNAi Designer (Invitrogen, Carlsbad, Calif.). The siRNA sequence 1 (as reported in Ye et al. 2005 MVR w/@75% silencing) was custom synthesized from Invitrogen (cat#10620312_40993403, NM_005746); (5′-[…]-3′ SEQ ID NO:4) and scrambled controls (cat#10620312_40993404).
Alternatively, small interfering RNA (siRNA) targeting human PBEF1 (NM_005746) was purchased as 4 ON-TARGETplus SMARTpool siRNA duplexes (catalog#L-004581-00) from Dharmacon (Lafayette, Colo.).

[3] = tested on: rat peritoneal neutrophils; assay: Transmigration and chemotaxis assay (Transwell); format: cell-based; conditions: rhPBEF (10 ng/ul) or casein in lower chamber, up to 4 hours
Protocol: Chemotaxis of rat peritoneal neutrophils (calcein-AM) across 3 μm polycarbonate filters was assessed in response to recombinant human PBEF/visfatin (rhPBEF, PeproTech, Rocky Hill, N.J.), or casein (positive control). (See Supplemental Methods for additional details).
Neutrophils were collected from retired breeder male Harlan-Sprague Dawley rats by intraperitoneal injection of 2.5% casein (5 ml). The resulting peritoneal fluid was recovered by PBS peritoneal lavage after 18 hr, centrifuged and examined for total cell counts and cell differentiation. For chemotaxis assays, leukocytes were exposed to calcein-AM in the presence of plurionic acid for 1 hr at room temperature. The temperature was then elevated to 37° C. for 30 min to cleave the calcein AM thereby reducing the rate of calcein diffusion out of the cells. […] The receiving wells were assessed serially in a fluorescent plate reader with absorption at 494 nm and emission measured at 517 nm. Fluorescence was recorded at 5, 10, 15, 30 min and each subsequent 30 min period for up to 4 hr. Aliquots of known numbers of neutrophils were counted in separate wells at each time point to account for any quenching of the fluorescence over time.

Molecule: O=C(/C=C/c1cccnc1)NCCCCC1CCN(C(=O)c2ccccc2)CC1 [FK-866]
- toxicity compared with TNP-470 treatment (RENCA cells; doses of up to 6 mg/kg FK-866, TNP 470 30 mg/kg subcutaneously every other day): less toxic than treatment with TNP-470
- doses with significant antitumor efficacy (RENCA cells; oral, twice daily, days 14 to 19 after tumor cell inoculation): ≥ 10 mg/kg

Molecule: Invitrogen siRNA: human PBEF stealth siRNA, single sequence, custom synthesized from Invitrogen; 5′-CCACCCAACACAAGCAAAGUUUAUU-3′ SEQ ID NO:4 (Stealth siRNA from Invitrogen, modification pattern not given here)
- PBEF silencing (human PBEF [1]): 75%
- downregulating PBEF protein expression (human PBEF [2]): effective

Molecule: casein [reference compound]
- PMN migration across Transwell filters [3]: significant at all time points beginning at 30 minutes
